Measured values from patent publication US20050267054A1, “Antibacterial compounds with improved pharmacokinetic profiles” (priority 2002, published 2005).
Like-named read-outs stand apart in the source and are kept apart here.

Assay: Pharmacokinetic profile, cassette dosing protocol in dog (IV and PO)
Assay type: in vivo
Conditions: male beagle dogs, 1 mg/kg; for AUC / clearance / half-life / Cmax / Tmax / Vd: dog, plasma; for clearance: read-out: CLp (IV) plasma clearance (converted); for Vd: male, beagle, iv
Description: The pharmacokinetic profiles of EXAMPLE 20, EXAMPLE 22, EXAMPLE 29 and EXAMPLE 31 were evaluated using cassette dosing protocols in dog. The cassette dosing protocol in dogs combined three test compounds with the reference compound (EXAMPLE 104 of commonly-owned U.S. Pat. No. 5,866,549), each at a dose of 1 mg/kg. The compounds for each cassette were formulated as a solution in an aqueous vehicle containing 10% ethanol and one equivalent hydrochloric acid. Groups of three male beagle dogs received either an intravenous dose (IV) or an oral dose (PO). Sequential blood samples were taken from each animal for 24 hours after dosing. The plasma concentrations of the test compound and reference compounds were simultaneously determined using HPLC-MS/MS following liquid-liquid extraction of the samples. The results are shown in TABLE 2, in which CLp is plasma clearance; T1/2 and Tmax are expressed in hours; Cmax is expressed in μg/mL; AUC is expressed in μg·h/mL; F is percent bioavaibility; and Vc and Vb (volumes of distibution) are expressed in L/Kg.

[1] = intravenous dose, read-out: AUC (IV)
[2] = intravenous dose, read-out: T1/2 (IV) (converted)
[3] = oral dose, read-out: T1/2 (PO) (converted)
[4] = intravenous dose, read-out: Vb (IV) volume of distribution
[5] = intravenous dose, read-out: Vc (IV) volume of distribution

Structure (SMILES) | AUC [1] | clearance (intravenous dose) | half-life [2] | Cmax (oral dose) | Tmax (oral dose) | AUC (oral dose, read-out: AUC (PO)) | half-life [3] | F (PO) percent bioavaibility (oral dose) | Vd [4] | Vd [5]
CC[C@H]1OC(=O)[C@@](C)(F)C(=O)[C@H](C)[C@@H](O[C@@H]2O[C@H](C)C[C@H](N(C)C)[C@H]2O)C(C)(OCC#Cc2ccc(-c3nnn(C)n3)s2)C[C@@H](C)C(=O)[C@H](C)[C@H]2NC(=O)O[C@@]21C (stereo in doubt) [EXAMPLE 20, (3aS,4R,7S,9R,10R,11S,13R,15R,15aR)-4-ethyl-7-fluoro-3a,7,9,11,13,15-hexamethyl-11-((3-(5-(2-methyl-2H-tetraazol-5-yl)thien-2-yl)prop-2-ynyl)oxy)-2,6,8,14-tetraoxotetradecahydro-2H-oxacyclotetradecino(4,3-d) (1,3)-oxazol-10-yl 3,4,6-trideoxy-3-(dimethylamino)-β-D-xylo-hexopyranoside] | 7290 ng·h/mL | 2.67 mL/min/kg | 14.4 h | 250 ng/mL | 2 h | 5140 ng·h/mL | 11.1 h | 73.60% | 3.1 L/kg | 1.6 L/kg
CC[C@H]1OC(=O)[C@H](C)C(=O)[C@H](C)[C@@H](O[C@@H]2O[C@H](C)C[C@H](N(C)C)[C@H]2O)C(C)(OCC#Cc2ccc(-c3nnn(C)n3)s2)C[C@@H](C)C(=O)[C@H](C)[C@H]2NC(=O)O[C@@]21C (stereo in doubt) [EXAMPLE 29, (3aS,4R,7R,9R,10R,11S,13R,15R,15aR)-4-ethyl-3a,7,9,11,13,15-hexamethyl-11-((3-(5-(2-methyl-2H-tetraazol-5-yl)thien-2-yl)prop-2-ynyl)oxy)-2,6,8,14-tetraoxotetradecahydro-2H-oxacyclotetradecino(4,3-d) (1,3)-oxazol-10-yl 3,4,6-trideoxy-3-(dimethylamino)-β-D-xylo-hexopyranoside] | – | – | – | – | – | – | – | 80.30% | 1.2 L/kg | 0.9 L/kg
CC[C@H]1OC(=O)[C@@](C)(F)C(=O)[C@H](C)[C@@H](O[C@@H]2O[C@H](C)C[C@H](N(C)C)[C@H]2O)C(C)(OC/C=C/c2ccc(-c3nnn(C)n3)s2)C[C@@H](C)C(=O)[C@H](C)[C@H]2NC(=O)O[C@@]21C (stereo in doubt) [EXAMPLE 31, (3aS,4R,7S,9R,10R,11S,13R,15R,15aR)-4-ethyl-7-fluoro-3a,7,9,11,13,15-hexamethyl-11-(((2E)-3-(5-(2-methyl-2H-tetraazol-5-yl)thien-2-yl)prop-2-enyl)oxy)-2,6,8,14-tetraoxotetradecahydro-2H-oxacyclotetradecino(4,3-d) (1,3)-oxazol-10-yl 3,4,6-trideoxy-3-(dimethylamino)-β-D-xylo-hexopyranoside] | 16100 ng·h/mL | 1.17 mL/min/kg | 22.9 h | 480 ng/mL | 4.5 h | 12600 ng·h/mL | 17.2 h | 81.10% | 2.3 L/kg | 1.1 L/kg
CC[C@H]1OC(=O)[C@H](C)C(=O)[C@H](C)[C@@H](O[C@@H]2O[C@H](C)C[C@H](N(C)C)[C@H]2O)C(C)(OC/C=C/c2ccc(-c3nnn(C)n3)s2)C[C@@H](C)C(=O)[C@H](C)[C@H]2NC(=O)O[C@@]21C (stereo in doubt) [EXAMPLE 22, (3aS,4R,7R,9R,10R,11S,13R,15R,15aR)-4-ethyl-3a,7,9,11,13,15-hexamethyl-11-(((2E)-3-(5-(2-methyl-2H-tetraazol-5-yl)thien-2-yl)prop-2-enyl)oxy)-2,6,8,14-tetraoxotetradecahydro-2H-oxacyclotetradecino(4,3-d) (1,3)-oxazol-10-yl 3,4,6-trideoxy-3-(dimethylamino)-β-D-xylo-hexopyranoside] | 11500 ng·h/mL | 1.5 mL/min/kg | 8.4 h | 490 ng/mL | 1.5 h | 6770 ng·h/mL | 7.8 h | 63.00% | 1.1 L/kg | 0.9 L/kg
